Measurements: US12522594B2, “2-heteroaryl-3-oxo-2,3-dihydropyridazine-4-carboxamides for the treatment of cancer” (Deutsches Krebsforschungszentrum, priority 2017, dated 2026)
Where “and” joins values, the source holds several entries; their conditions need not be identical. Identical values can stand only once.

Experiments:
Assay type in all cases: cell-based
human monocytes = assay: In vitro assay 4: rescue of TNFα production from human primary monocytes (LPS + KA); conditions: one value per donor; for Individual Donors Conc of highest rescue: concentration (of 1, 0.3, 0.1 uM tested) at which highest TNFα rescue was observed; for Individual Donors % rescue TNFα normalised to ref cmpd: human monocytes, 10 ng/mL LPS + 200 uM KA, 18 hours, highest percent rescue relative to highest rescue with GNF-351
Experimental: In Vitro Assay 4: Rescue of TNFα Production from Human Primary Monocytes
The ability of the substances to enhance immune cell activity was determined. The substances were tested for their capacity to reverse KA-induced inhibition of TNFα production by LPS-stimulated human monocytes. Human monocytes were purified by negative selection from donor PBMCs using Miltenyi beads and seeded at 2×10^5 cells/well in complete growth medium (RPMI 1640, 10% FCS). Monocytes were incubated with 10 ng/mL LPS (O127:B8, #L4516, Sigma) and 200 uM KA (#3375, Sigma) and substances were added at concentrations of 1 uM, 0.3 uM and 0.1 uM and cultured for 18 hours. LPS alone served as the positive control. TNFα production in the supernatant was measured by Meso Scale Discovery immunoassay and the ability of the substances to rescue TNFα production was calculated as a percentage of LPS stimulation and KA-induced inhibition and normalized to the donor-specific response with the reference AHR antagonist compound GNF-351 (Smith et al., J Pharmacol Exp Ther, 2011, 338(1):318-27).

AHR [1] = biological target: T1, AHR (Homo sapiens, UniProt P35869); assay: In vitro assay 1: antagonism in human cell line (transactivation assay, U87 cells prestimulated with kynurenic acid, DRE firefly luciferase reporter); set-up: host or cells: U87 glioblastoma cells, stably transfected with DRE firefly luciferase and renilla reporter constructs; conditions: 150 uM kynurenic acid, 20 hours, read-out: Assay 1: AHR-luc Hum Antagonism IC50
T1 sequence (P35869 11-848): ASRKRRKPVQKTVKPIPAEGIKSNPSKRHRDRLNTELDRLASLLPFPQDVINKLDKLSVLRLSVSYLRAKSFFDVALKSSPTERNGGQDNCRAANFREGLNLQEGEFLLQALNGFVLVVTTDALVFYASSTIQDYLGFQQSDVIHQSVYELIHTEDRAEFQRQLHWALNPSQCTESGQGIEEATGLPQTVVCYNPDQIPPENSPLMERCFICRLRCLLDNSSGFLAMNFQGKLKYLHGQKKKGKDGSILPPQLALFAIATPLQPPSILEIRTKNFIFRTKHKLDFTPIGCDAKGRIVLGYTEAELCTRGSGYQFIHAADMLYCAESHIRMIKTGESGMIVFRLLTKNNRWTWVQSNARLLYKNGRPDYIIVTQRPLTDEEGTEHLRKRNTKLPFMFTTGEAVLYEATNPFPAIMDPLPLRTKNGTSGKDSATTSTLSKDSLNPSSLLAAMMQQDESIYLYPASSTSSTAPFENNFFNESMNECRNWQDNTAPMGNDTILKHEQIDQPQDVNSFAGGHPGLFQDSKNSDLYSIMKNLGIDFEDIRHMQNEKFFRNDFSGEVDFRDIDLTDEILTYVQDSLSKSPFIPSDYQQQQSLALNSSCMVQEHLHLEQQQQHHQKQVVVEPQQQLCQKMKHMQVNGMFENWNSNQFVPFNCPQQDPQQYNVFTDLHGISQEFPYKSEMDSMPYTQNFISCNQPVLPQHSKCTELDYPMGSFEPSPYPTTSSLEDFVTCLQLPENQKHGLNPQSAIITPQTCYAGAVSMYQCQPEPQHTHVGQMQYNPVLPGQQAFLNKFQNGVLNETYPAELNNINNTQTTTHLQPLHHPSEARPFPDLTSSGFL
In short: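 Antagonism measured after kynurenic acid prestimulation in U87 cells that express AHR endogenously and stably harbor a firefly luciferase gene under DRE control plus a constitutive renilla construct. Positive and negative controls served for normalization.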

AHR [2] = biological target: T1, AHR; assay: In vitro assay 2: agonism in human cell line (transactivation assay, U87 cells, DRE firefly luciferase reporter); set-up: host or cells: U87 glioblastoma cells, stably transfected with DRE firefly luciferase and renilla reporter constructs; conditions: no kynurenic acid, 20 hours, read-out: Assay 2: AHR-luc Hum Agonism IC50
In short: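 Agonist readout: DRE firefly luciferase, with constitutive renilla reporter, in stably transfected U87 cells expressing AHR endogenously. Normalization used positive control (300 uM kynurenic acid) and negative control.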

AHR [3] = biological target: T1, AHR; assay: In vitro assay 3: AHR-regulated CYP1A1 expression in human cell line (U937, qPCR, KA stimulation); conditions: U937 cells, 200 uM KA, 6 hours, CYP1A1 expression by qPCR; read-out: Assay 3: Hum CYP1A1 Antagonism IC50
In short: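 U937 human monocytic cells were stimulated with 200 uM KA for 6 h, with or without compound at eight concentrations from 1 nM to 3 uM, in duplicate. CYP1A1 mRNA was quantified by Taqman qPCR as fold expression normalised to HPRT. Unstimulated cells served as negative control.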

| SMILES | Individual Donors Conc of highest rescue (human monocytes) | Individual Donors % rescue TNFα normalised to ref cmpd (human monocytes) | IC50 (AHR [1]) [nM] | IC50 (AHR [2]) [nM] | IC50 (AHR [3]) [nM] |
| --- | --- | --- | --- | --- | --- |
| O=C(NC(CO)C(F)(F)F)c1cc(-c2ccc(C(F)(F)F)cc2)nn(-c2cccnc2)c1=O (racemic) [Example 110, 3-Oxo-2-(pyridin-3-yl)-N-[(2RS)-1,1,1-trifluoro-3-hydroxypropan-2-yl]-6-[4-(trifluoromethyl)phenyl]-2,3-dihydropyridazine-4-carboxamide] | 0.1 µM and 0.3 µM | 85% and 42% | 3.31 | > 20000 | – |
| O=C(N[C@H]1COC[C@H]1O)c1cc(-c2ccc(C(F)F)nc2)nn(-c2cccnc2)c1=O (single isomer, unassigned) [Example 184, 6-[6-(Difluoromethyl)pyridin-3-yl]-N-[(cis)-4-hydroxytetrahydrofuran-3-yl]-3-oxo-2-(pyridin-3-yl)-2,3-dihydropyridazine-4-carboxamide] | 0.1 µM and 1 µM | 63% and 62% | 3810 | > 20000 | – |
| CC(C)(O)C(NC(=O)c1cc(-c2ccc(Cl)cc2)nn(-c2cncnc2)c1=O)C(F)(F)F (single isomer, unassigned) [Example 186, 6-(4-Chlorophenyl)-3-oxo-2-(pyrimidin-5-yl)-N-(1,1,1-trifluoro-3-hydroxy-3-methylbutan-2-yl)-2,3-dihydropyridazine-4-carboxamide] | 0.1 µM and 0.3 µM | 65% and 108% | 131 | > 20000 | – |
| Cn1cc(-n2nc(-c3ccc(C(F)(F)F)cc3)cc(C(=O)N[C@H](CO)C(F)(F)F)c2=O)cn1 [Example 36, 2-(1-Methyl-1H-pyrazol-4-yl)-3-oxo-N-[(2R)-1,1,1-trifluoro-3-hydroxypropan-2-yl]-6-[4-(trifluoromethyl)phenyl]-2,3-dihydropyridazine-4-carboxamide] | 1 µM | 74% and 65% | – | > 20000 | – |
| C[C@H](NC(=O)c1cc(-c2ccc(C(F)(F)F)cc2)nn(-c2cn[nH]c2)c1=O)C(C)(C)O [Example 260, N-[(2S)-3-Hydroxy-3-methylbutan-2-yl]-3-oxo-2-(1H-pyrazol-4-yl)-6-[4-(trifluoromethyl)phenyl]-2,3-dihydropyridazine-4-carboxamide] | – | – | 29.4 | > 20000 | 14.4 |
| C[C@H](NC(=O)c1cc(-c2ccc(Cl)cc2)nn(-c2cnn(C(F)F)c2)c1=O)C(C)(C)O [Example 264, 6-(4-Chlorophenyl)-2-[1-(difluoromethyl)-1H-pyrazol-4-yl]-N-[(2S)-3-hydroxy-3-methylbutan-2-yl]-3-oxo-2,3-dihydropyridazine-4-carboxamide] | – | – | 44.4 | > 20000 | 85.6 |
| CC(C)(O)CNC(=O)c1cc(-c2ccc(OC(F)(F)F)cc2)nn(-c2cccnc2)c1=O [Example 292, N-(2-Hydroxy-2-methylpropyl)-3-oxo-2-(pyridin-3-yl)-6-[4-(trifluoromethoxy)phenyl]-2,3-dihydropyridazine-4-carboxamide] | – | – | 45.9 | > 20000 | 43.3 |
| O=C(NC[C@H](O)C(F)F)c1cc(-c2ccc(OC(F)(F)F)cc2)nn(-c2cccnc2)c1=O [Example 295, N-[(2S)-3,3-Difluoro-2-hydroxypropyl]-3-oxo-2-(pyridin-3-yl)-6-[4-(trifluoromethoxy)phenyl]-2,3-dihydropyridazine-4-carboxamide] | – | – | 31.9 | > 20000 | 89.9 |
| C[C@@H](CO)NC(=O)c1cc(-c2ccc(OC(F)F)cc2)nn(-c2cnn(C)c2)c1=O [Example 308, 6-[4-(Difluoromethoxy)phenyl]-N-[(2S)-1-hydroxypropan-2-yl]-2-(1-methyl-1H-pyrazol-4-yl)-3-oxo-2,3-dihydropyridazine-4-carboxamide] | – | – | 21.9 | > 20000 | 33.7 |
| C[C@H](NC(=O)c1cc(-c2ccc(OC(F)F)cc2)nn(-c2cnn(C)c2)c1=O)C(C)(C)O [Example 309, 6-[4-(Difluoromethoxy)phenyl]-N-[(2S)-3-hydroxy-3-methylbutan-2-yl]-2-(1-methyl-1H-pyrazol-4-yl)-3-oxo-2,3-dihydropyridazine-4-carboxamide] | – | – | 16.4 | > 20000 | 40.3 |
| C[C@H](NC(=O)c1cc(-c2ccc(N(C)C)cc2)nn(-c2cnn(C)c2)c1=O)C(C)(C)O [Example 310, 6-[4-(Dimethylamino)phenyl]-N-[(2S)-3-hydroxy-3-methylbutan-2-yl]-2-(1-methyl-1H-pyrazol-4-yl)-3-oxo-2,3-dihydropyridazine-4-carboxamide] | – | – | 1.7 | > 20000 | 1.69 |
| C[C@@H](CO)NC(=O)c1cc(-c2ccc(N(C)C)cc2)nn(-c2cnn(C)c2)c1=O [Example 311, 6-[4-(Dimethylamino)phenyl]-N-[(2S)-1-hydroxypropan-2-yl]-2-(1-methyl-1H-pyrazol-4-yl)-3-oxo-2,3-dihydropyridazine-4-carboxamide] | – | – | 1.82 | > 20000 | 1.03 |
| O=C(NC[C@H](O)C(F)(F)F)c1cc(-c2ccc(C(F)F)cc2)nn(-c2cccnc2)c1=O [Example 313, 6-[4-(Difluoromethyl)phenyl]-3-oxo-2-(pyridin-3-yl)-N-[(2S)-3,3,3-trifluoro-2-hydroxypropyl]-2,3-dihydropyridazine-4-carboxamide] | – | – | 2.63 | > 20000 | 3.81 |
| O=C(NC[C@H](O)C(F)(F)F)c1cc(-c2ccc(OC(F)F)cc2)nn(-c2cccnc2)c1=O [Example 314, 6-[4-(Difluoromethoxy)phenyl]-3-oxo-2-(pyridin-3-yl)-N-[(2S)-3,3,3-trifluoro-2-hydroxypropyl]-2,3-dihydropyridazine-4-carboxamide] | – | – | 5.8 | > 20000 | 10.9 |
| C[C@H](NC(=O)c1cc(-c2ccc(C(F)F)cc2)nn(-c2cccnc2)c1=O)C(C)(C)O [Example 319, 6-[4-(Difluoromethyl)phenyl]-N-[(2S)-3-hydroxy-3-methylbutan-2-yl]-3-oxo-2-(pyridin-3-yl)-2,3-dihydropyridazine-4-carboxamide] | – | – | 35.5 | > 20000 | 22.3 |
| CC(C)(O)CNC(=O)c1cc(-c2ccc(C(F)F)cc2)nn(-c2cccnc2)c1=O [Example 322, 6-[4-(Difluoromethyl)phenyl]-N-(2-hydroxy-2-methylpropyl)-3-oxo-2-(pyridin-3-yl)-2,3-dihydropyridazine-4-carboxamide] | – | – | 56.7 | > 20000 | 31.1 |
